Measurements taken from patent publication US20080279800A1, “AROMACHEMICALS” (Flexitral, Inc., priority 2007, published 2008).

Assay: Toxicology tests, oral LD50
Details: rat, in vivo, rats

## CC(C(C)C(C)(C)C)C(C)C1(C)CO1 (stereo not shown) [2-methyl-2-(1,2,3,4,4-pentamethylpentyl)oxirane]
  LD50: > 2000 mg/kg
